# pKi: −log10 of the molar value. Where a name gives a salt, the structure may show the parent alone.
# Molecular target: T1, Dimer of Gag-Pol polyprotein [501-599] (Human immunodeficiency virus 1, UniProt P03367)
# T1 construct: 501-599
# Assay: Protease Inhibition Assay
# Conditions: not given
# Method: HIV-1 protease activity was measured by a continuous fluorometric assay using the internally quenched fluorogenic substrate DABCYL-Ser-Gln-Asn-Tyr-Pro-Ile-Val-Gln-EDANS. The proteolytic activity can be monitored by the increase in fluorescence intensity, and the protease products were analyzed by HPLC.
row,Compound,pKi
1,"Cc1ccc(S(=O)(=O)N(CC(C)C)[C@@H](CCCCNC(=O)OCC2c3ccccc3-c3ccccc32)c2nnn[nH]2)cc1 [9H-fluoren-9-ylmethyl N-[(5S)-5-[(4-methylbenzene)(2-methylpropyl)sulfonamido]-5-(1H-1,2,3,4-tetrazol-5-yl)pentyl]carbamate]",< 6.52
2,COC(=O)[C@H](CCCCNC(=O)OCC1c2ccccc2-c2ccccc21)N(CC(C)C)S(=O)(=O)c1ccc(C)cc1 [methyl (2S)-6-{[(9H-fluoren-9-ylmethoxy)carbonyl]amino}-2-[(4-methylbenzene)(2-methylpropyl)sulfonamido]hexanoate],< 6.52
3,Cc1ccc(S(=O)(=O)N(CC(C)C)[C@H](C=O)CCCCNC(=O)OCC2c3ccccc3-c3ccccc32)cc1 [9H-fluoren-9-ylmethyl N-[(5S)-5-[(4-methylbenzene)(2-methylpropyl)sulfonamido]-6-oxohexyl]carbamate],< 6.52
4,Cc1ccc(S(=O)(=O)N(CC(C)C)[C@@H](CCCCNC(=O)OCC2c3ccccc3-c3ccccc32)C(N)=S)cc1 [9H-fluoren-9-ylmethyl N-[(5S)-5-carbamothioyl-5-[(4-methylbenzene)(2-methylpropyl)sulfonamido]pentyl]carbamate],6.90
5,Cc1ccc(S(=O)(=O)N(CC(C)C)[C@@H](CCCCNC(=O)OC(C)(C)C)C(=O)O)cc1 [(2S)-6-{[(tert-butoxy)carbonyl]amino}-2-[(4-methylbenzene)(2-methylpropyl)sulfonamido]hexanoic acid],< 6.60
6,Cc1ccc(S(=O)(=O)N(CC(C)C)[C@H](CO)CCCCNC(=O)OCC2c3ccccc3-c3ccccc32)cc1 [9H-fluoren-9-ylmethyl N-[(5S)-6-hydroxy-5-[(4-methylbenzene)(2-methylpropyl)sulfonamido]hexyl]carbamate],6.98
7,Cc1ccc(S(=O)(=O)N(CC(C)C)[C@@H](CCNC(=O)OCC2c3ccccc3-c3ccccc32)C(=O)O)cc1 [(2S)-4-{[(9H-fluoren-9-ylmethoxy)carbonyl]amino}-2-[(4-methylbenzene)(2-methylpropyl)sulfonamido]butanoic acid],< 6.60
8,Cc1ccc(S(=O)(=O)N(CC(C)C)[C@@H](CCCCNC(=O)OCC2c3ccccc3-c3ccccc32)C(=O)NN)cc1 [9H-fluoren-9-ylmethyl N-[(5S)-5-(hydrazinecarbonyl)-5-[(4-methylbenzene)(2-methylpropyl)sulfonamido]pentyl]carbamate],6.60
9,Cc1ccc(S(=O)(=O)N(CC(C)C)[C@@H](CCCCNC(=O)C2c3ccccc3-c3ccccc32)C(=O)O)cc1 [(2S)-6-(9H-fluoren-9-ylformamido)-2-[(4-methylbenzene)(2-methylpropyl)sulfonamido]hexanoic acid],6.98
10,Cc1ccc(S(=O)(=O)N(CC(C)C)[C@@H](CCCCNC(=O)OCC2c3ccccc3-c3ccccc32)C(N)=O)cc1 [9H-fluoren-9-ylmethyl N-[(5S)-5-carbamoyl-5-[(4-methylbenzene)(2-methylpropyl)sulfonamido]pentyl]carbamate],6.97
11,Cc1ccc(S(=O)(=O)N(CC(C)C)[C@@H](CCCCNC(=O)OCC2c3ccccc3-c3ccccc32)C(=O)NO)cc1 [9H-fluoren-9-ylmethyl N-[(5S)-5-(hydroxycarbamoyl)-5-[(4-methylbenzene)(2-methylpropyl)sulfonamido]pentyl]carbamate],6.61
12,Cc1ccc(S(=O)(=O)N(CC(C)C)[C@H](CN)CCCCNC(=O)OCC2c3ccccc3-c3ccccc32)cc1 [9H-fluoren-9-ylmethyl N-[(5S)-6-amino-5-[(4-methylbenzene)(2-methylpropyl)sulfonamido]hexyl]carbamate hydrochloride],< 6.52
13,Cc1ccc(S(=O)(=O)N(CC(C)C)[C@@H](CNC(=O)OCC2c3ccccc3-c3ccccc32)C(=O)O)cc1 [(2S)-3-{[(9H-fluoren-9-ylmethoxy)carbonyl]amino}-2-[(4-methylbenzene)(2-methylpropyl)sulfonamido]propanoic acid],< 6.60
14,Cc1ccc(S(=O)(=O)N(CC(C)C)[C@@H](CCCCCNC(=O)OCC2c3ccccc3-c3ccccc32)C(=O)O)cc1 [(2S)-7-{[(9H-fluoren-9-ylmethoxy)carbonyl]amino}-2-[(4-methylbenzene)(2-methylpropyl)sulfonamido]heptanoic acid],< 6.60
15,CC(C)CN(C(=O)c1ccccc1)[C@@H](CCCCNC(=O)OCC1c2ccccc2-c2ccccc21)C(=O)O [(2S)-6-{[(9H-fluoren-9-ylmethoxy)carbonyl]amino}-2-[N-(2-methylpropyl)phenylformamido]hexanoic acid],< 6.52
16,Cc1ccc(S(=O)(=O)N(CC(C)C)[C@@H](CCCCNC(=O)OCC2c3ccccc3-c3ccccc32)C(=N)N)cc1 [9H-fluoren-9-ylmethyl N-[(5S)-5-carbamimidoyl-5-[(4-methylbenzene)(2-methylpropyl)sulfonamido]pentyl]carbamate],6.55

# Same assay, conditions: pH 4.7; 30 °C
row,Compound,pKi
1,Cc1ccc(S(=O)(=O)N(CCCC[C@H](NC(=O)OCC2c3ccccc3-c3ccccc32)C(=O)O)CC(C)C)cc1 [(2S)-2-{[(9H-fluoren-9-ylmethoxy)carbonyl]amino}-6-[(4-methylbenzene)(2-methylpropyl)sulfonamido]hexanoic acid],5.70
2,CC(C)(C)OC(=O)NCCCC[C@H](NC(=O)OCc1ccccc1)C(=O)O [(2S)-2-{[(benzyloxy)carbonyl]amino}-6-{[(tert-butoxy)carbonyl]amino}hexanoic acid],< 4.00
3,Cc1ccc(S(=O)(=O)N[C@@H](CCCCNC(=O)OC(C)(C)C)C(=O)O)cc1 [(2S)-6-{[(tert-butoxy)carbonyl]amino}-2-[(4-methylbenzene)sulfonamido]hexanoic acid],< 4.00
4,Cc1ccc(S(=O)(=O)NCCC[C@H](NC(=O)OCC2c3ccccc3-c3ccccc32)C(=O)O)cc1 [(2S)-2-{[(9H-fluoren-9-ylmethoxy)carbonyl]amino}-5-[(4-methylbenzene)sulfonamido]pentanoic acid],4.58
5,Cc1ccc(S(=O)(=O)N(CC(C)C)[C@@H](CCCCNC(=O)OCC2c3ccccc3-c3ccccc32)C(=O)O)cc1 [(2S)-6-{[(9H-fluoren-9-ylmethoxy)carbonyl]amino}-2-[(4-methylbenzene)(2-methylpropyl)sulfonamido]hexanoic acid],8.30
